PubChem BioAssay (NCI)
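Protocol summary: plate cells (96-well), add compound at 5 concentrations, incubate 48 h, interpolate endpoints linearly. At the GI50, growth is halved. Definition used: TGI = concentration required for complete inhibition of growth.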

How the values were obtained:
Test in all cases: growth of human tumour cells (NCI), 48 h
NCI-H23 lung = tested on: NCI-H23 lung
NCI-H460 lung = tested on: NCI-H460 lung
NCI-H522 lung = tested on: NCI-H522 lung
NCI/ADR-RES ovarian = tested on: NCI/ADR-RES ovarian
OVCAR-3 ovarian = tested on: OVCAR-3 ovarian
OVCAR-4 ovarian = tested on: OVCAR-4 ovarian
OVCAR-5 ovarian = tested on: OVCAR-5 ovarian
OVCAR-8 ovarian = tested on: OVCAR-8 ovarian
PC-3 prostate = tested on: PC-3 prostate
RPMI-8226 leukemia = tested on: RPMI-8226 leukemia
SF-268 CNS = tested on: SF-268 CNS
SF-295 CNS = tested on: SF-295 CNS
SF-539 CNS = tested on: SF-539 CNS
SK-MEL-2 melanoma = tested on: SK-MEL-2 melanoma
SK-MEL-28 melanoma = tested on: SK-MEL-28 melanoma
SK-MEL-5 melanoma = tested on: SK-MEL-5 melanoma
SK-OV-3 ovarian = tested on: SK-OV-3 ovarian
SN12C renal = tested on: SN12C renal
SNB-19 CNS = tested on: SNB-19 CNS
SNB-75 CNS = tested on: SNB-75 CNS
SR leukemia = tested on: SR leukemia
SW-620 colon = tested on: SW-620 colon
T-47D breast = tested on: T-47D breast
TK-10 renal = tested on: TK-10 renal
U251 CNS = tested on: U251 CNS
UACC-257 melanoma = tested on: UACC-257 melanoma
UACC-62 melanoma = tested on: UACC-62 melanoma
UO-31 renal = tested on: UO-31 renal

Molecule `COc1ccc2oc(-c3ccc(Cl)cc3)c(N3CCN(C)CC3)c2c1` has a GI50 (NCI-H23 lung) of 2.88 µM, a TGI (NCI-H23 lung) of 8.99 µM and a GI50 (NCI-H460 lung) of 1.94 µM. The TGI (NCI-H460 lung) was 4.16 µM, the GI50 (NCI-H522 lung) was 1.9 µM and the TGI (NCI-H522 lung) was 3.91 µM. The GI50 (NCI/ADR-RES ovarian) was 2.19 µM, the TGI (NCI/ADR-RES ovarian) was 5.46 µM and the GI50 (OVCAR-3 ovarian) was 1.95 µM. It also gave a TGI (OVCAR-3 ovarian) of 4.37 µM, a GI50 (OVCAR-4 ovarian) of 2.12 µM and a TGI (OVCAR-4 ovarian) of 7.22 µM. The GI50 (OVCAR-5 ovarian) was 1.95 µM, the TGI (OVCAR-5 ovarian) was 4.34 µM and the GI50 (OVCAR-8 ovarian) was 1.9 µM. The TGI (OVCAR-8 ovarian) was 3.94 µM, the GI50 (PC-3 prostate) was 1.69 µM and the TGI (PC-3 prostate) was 5.54 µM. For the same molecule, the GI50 (RPMI-8226 leukemia) was 1.25 µM, the TGI (RPMI-8226 leukemia) was 4.72 µM and the GI50 (SF-268 CNS) was 2.36 µM. It also gave a TGI (SF-268 CNS) of 5.61 µM, a GI50 (SF-295 CNS) of 2.06 µM and a TGI (SF-295 CNS) of 5.12 µM. The GI50 (SF-539 CNS) was 1.78 µM, the TGI (SF-539 CNS) was 3.37 µM and the GI50 (SK-MEL-2 melanoma) was 1.8 µM. It also gave a TGI (SK-MEL-2 melanoma) of 4.4 µM, a GI50 (SK-MEL-28 melanoma) of 1.62 µM and a TGI (SK-MEL-28 melanoma) of 3.08 µM. For the same molecule, the GI50 (SK-MEL-5 melanoma) was 1.58 µM, the TGI (SK-MEL-5 melanoma) was 3.06 µM and the GI50 (SK-OV-3 ovarian) was 2.17 µM. For the same molecule, the TGI (SK-OV-3 ovarian) was 4.99 µM, the GI50 (SN12C renal) was 2.52 µM and the TGI (SN12C renal) was 10.2 µM. For the same molecule, the GI50 (SNB-19 CNS) was 1.97 µM, the TGI (SNB-19 CNS) was 5.18 µM and the GI50 (SNB-75 CNS) was 1.48 µM. For the same molecule, the TGI (SNB-75 CNS) was 4.01 µM, the GI50 (SR leukemia) was 2.27 µM and the TGI (SR leukemia) was 8.12 µM. For the same molecule, the GI50 (SW-620 colon) was 1.82 µM, the TGI (SW-620 colon) was 3.48 µM and the GI50 (T-47D breast) was 2.32 µM. It also gave a TGI (T-47D breast) of 6.78 µM, a GI50 (TK-10 renal) of 1.83 µM and a TGI (TK-10 renal) of 3.58 µM. For the same molecule, the GI50 (U251 CNS) was 1.64 µM, the TGI (U251 CNS) was 3.14 µM and the GI50 (UACC-257 melanoma) was 1.68 µM. It also gave a TGI (UACC-257 melanoma) of 3.43 µM, a GI50 (UACC-62 melanoma) of 1.73 µM and a TGI (UACC-62 melanoma) of 3.44 µM. The GI50 (UO-31 renal) was 1.05 µM and the TGI (UO-31 renal) was 2.71 µM.
